Data set [1] deals with T1, Histone-arginine methyltransferase CARM1 (Homo sapiens, UniProt Q86X55).
T1 sequence (Q86X55 whole entry): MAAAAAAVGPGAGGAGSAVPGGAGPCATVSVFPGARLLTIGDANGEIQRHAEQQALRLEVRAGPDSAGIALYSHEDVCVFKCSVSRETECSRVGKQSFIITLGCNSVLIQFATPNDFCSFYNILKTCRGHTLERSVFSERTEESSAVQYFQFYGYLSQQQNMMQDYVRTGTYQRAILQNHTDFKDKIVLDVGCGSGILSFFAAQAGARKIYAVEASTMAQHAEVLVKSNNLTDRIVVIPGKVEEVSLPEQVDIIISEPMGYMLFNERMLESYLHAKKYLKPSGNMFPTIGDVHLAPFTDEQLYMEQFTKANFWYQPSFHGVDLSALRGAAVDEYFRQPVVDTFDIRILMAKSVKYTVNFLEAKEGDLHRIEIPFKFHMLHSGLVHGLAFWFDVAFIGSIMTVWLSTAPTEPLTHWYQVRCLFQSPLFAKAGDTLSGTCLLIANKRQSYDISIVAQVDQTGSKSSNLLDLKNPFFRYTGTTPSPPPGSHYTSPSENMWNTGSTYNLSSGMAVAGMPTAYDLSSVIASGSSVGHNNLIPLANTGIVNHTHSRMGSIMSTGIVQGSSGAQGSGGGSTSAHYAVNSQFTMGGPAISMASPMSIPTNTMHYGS
Briefly: Inhibition of CARM1 (unknown origin).

Data set [2] is described as follows: Lipophilicity, logP of compound. Conditions: octanol/water. It counts as physicochemical.
Another data set has as its system DU-145. Briefly: Antiproliferative activity against human DU-145 cells assessed as reduction in cell viability incubated for 72 hrs by MTT assay. The data set is classed as functional, cell-based. Conditions: DU-145, 72 h. (In general: Formazan colour is commonly taken as a measure of viable cells.)
Data set [3] addresses T1, Histone-arginine methyltransferase CARM1. Briefly: Inhibition of C-terminal His-tagged human CARM1 catalytic domain (135 to 479 residues) extracted from Escherichia coli BL21 CodonPlus (DE3)-RIL cells using (H3(3-31)) as substrate by enzymatic assay.
The target in data set [4] is Protein arginine N-methyltransferase 5 (Homo sapiens, UniProt O14744). The data set is described as follows: Inhibition of PRMT5 (unknown origin).
Sequence of Protein arginine N-methyltransferase 5 (O14744 whole entry): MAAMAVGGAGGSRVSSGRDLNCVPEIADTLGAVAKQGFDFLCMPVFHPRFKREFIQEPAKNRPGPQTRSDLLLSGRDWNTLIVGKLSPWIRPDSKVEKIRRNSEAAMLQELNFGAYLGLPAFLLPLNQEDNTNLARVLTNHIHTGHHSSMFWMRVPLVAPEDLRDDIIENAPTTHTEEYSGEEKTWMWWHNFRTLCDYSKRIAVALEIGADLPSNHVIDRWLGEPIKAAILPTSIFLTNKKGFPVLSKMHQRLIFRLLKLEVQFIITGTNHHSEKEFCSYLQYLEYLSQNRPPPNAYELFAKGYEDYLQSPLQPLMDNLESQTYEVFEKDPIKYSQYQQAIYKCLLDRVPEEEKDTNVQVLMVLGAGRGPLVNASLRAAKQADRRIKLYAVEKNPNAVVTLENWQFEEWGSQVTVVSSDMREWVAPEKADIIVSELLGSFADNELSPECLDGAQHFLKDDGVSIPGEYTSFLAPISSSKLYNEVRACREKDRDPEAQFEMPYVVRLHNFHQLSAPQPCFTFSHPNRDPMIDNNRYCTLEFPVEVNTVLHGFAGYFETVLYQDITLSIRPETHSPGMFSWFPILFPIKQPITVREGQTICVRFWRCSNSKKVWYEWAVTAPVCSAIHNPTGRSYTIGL
The species entered for the next data set is Homo sapiens. Briefly: Selectivity ratio of IC50 for human PRMT6 to IC50 for human PRMT4.
Data set [5] has as its target Protein arginine N-methyltransferase 3 (Homo sapiens, UniProt O60678). The data set is described as follows: Inhibition of PRMT3 (unknown origin).
Data set [6] addresses T1, Histone-arginine methyltransferase CARM1. Briefly: Inhibition of PRMT4 (unknown origin).
Another data set concerns ASPC1. Briefly: Antitumor activity in human ASPC1 cells xenografted in BALB/c nude mouse assessed as tumor growth inhibition at 100 mg/kg, relative to control. The data set is classed as functional. Set-up: scale not given: the % may be the effect or the level left. Background: Xenograft models place foreign cells or tissue in a host animal.
Data set [7] concerns the target T1, Histone-arginine methyltransferase CARM1. Briefly: Inhibition of human N-terminal 6xHis-tagged CARM1 catalytic domain (140 to 480 residues) using histone H3 as substrate and SAM as cofactor by radiometric HotSpot assay.
The test system of the next data set is MV4-11. The data set is described as follows: Antiproliferative activity against human MV4-11 cells assessed as reduction in cell viability. It counts as functional, cell-based.
The target in data set [8] is Protein arginine N-methyltransferase 6 (Homo sapiens, UniProt Q96LA8). Briefly: Inhibition of PRMT6 (unknown origin) by scintillation proximity assay.
Sequence of Protein arginine N-methyltransferase 6 (Q96LA8 whole entry): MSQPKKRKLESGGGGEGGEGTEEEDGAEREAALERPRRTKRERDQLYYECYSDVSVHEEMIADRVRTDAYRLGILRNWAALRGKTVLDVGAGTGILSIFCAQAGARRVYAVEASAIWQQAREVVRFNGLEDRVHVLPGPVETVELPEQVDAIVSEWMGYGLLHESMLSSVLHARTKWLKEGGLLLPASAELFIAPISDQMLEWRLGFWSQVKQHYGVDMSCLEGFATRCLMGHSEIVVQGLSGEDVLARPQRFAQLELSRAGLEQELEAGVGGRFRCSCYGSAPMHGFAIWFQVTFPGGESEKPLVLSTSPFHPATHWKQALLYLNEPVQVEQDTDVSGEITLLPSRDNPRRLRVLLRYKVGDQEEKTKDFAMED
Another data set deals with MCF7. The data set is described as follows: Cytotoxicity against human MCF7 cells assessed as reduction in cell viability by MTS assay. The data set is classed as functional, cell-based.
The target of data set [9] is T1, Histone-arginine methyltransferase CARM1. Briefly: Inhibition of GST-tagged CARM1 (unknown origin) extracted form Escherichia coli BL21 (DE3) by MTase-Glo reagent based luminometer analysis.

The structures appear in SMILES notation.

In general, IC50 refers to the concentration that inhibits the measured activity by half. Usually logP stands for a log measure of how a compound divides between an organic and an aqueous phase.

Sequence of Protein arginine N-methyltransferase 3 (O60678 whole entry): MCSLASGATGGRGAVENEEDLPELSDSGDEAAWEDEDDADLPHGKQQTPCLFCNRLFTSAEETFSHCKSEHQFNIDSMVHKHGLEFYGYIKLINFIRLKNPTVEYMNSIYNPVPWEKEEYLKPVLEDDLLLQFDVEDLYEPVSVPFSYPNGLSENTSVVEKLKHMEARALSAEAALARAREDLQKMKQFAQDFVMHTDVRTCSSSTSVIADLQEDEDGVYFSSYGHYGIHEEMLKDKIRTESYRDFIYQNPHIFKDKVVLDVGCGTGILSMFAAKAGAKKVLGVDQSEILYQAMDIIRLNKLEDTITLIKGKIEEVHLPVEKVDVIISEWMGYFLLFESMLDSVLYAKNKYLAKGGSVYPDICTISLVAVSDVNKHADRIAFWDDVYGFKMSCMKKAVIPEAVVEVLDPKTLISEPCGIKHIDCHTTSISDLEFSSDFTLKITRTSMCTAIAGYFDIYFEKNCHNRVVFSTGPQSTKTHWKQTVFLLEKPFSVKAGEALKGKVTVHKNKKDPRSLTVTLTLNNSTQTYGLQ

Turning to `CCOC(=O)c1cc(C(=O)NCc2ccccc2CCC(F)(F)F)n(-c2cccc(NC(=O)[C@H](C)N)c2)c1`, half-maximal inhibition in data set [1] (IC50) was put at 780 nM. In addition, the logP in data set [2] is 4.48. Take `C[S+](CC[C@H](N)C(=O)[O-])C[C@H]1O[C@@H](n2cnc3c(N)ncnc32)[C@H](O)[C@@H]1O` (stereo partly drawn) [ADEMETIONINE]: 2.8 nM corresponded to half-maximal inhibition in data set [1] (IC50). On to `CNCCNCc1cccc(-c2nc(Nc3cccc(OCCCCCCC(=O)NO)c3)c(C)c(-c3ccnc4[nH]ccc34)n2)c1`, for which the IC50 in the data set with DU-145 was less than 1000 nM. In the case of `Nc1ncnc2c1ncn2[C@H]1O[C@@H](CN(CCCNc2ccccn2)CC[C@H](N)C(=O)O)[C@H](O)[C@@H]1O`, the IC50 in [3] was 1110 nM.

Turning to `NC(=O)[C@@H](N)CCCNCNCCCSC[C@H]1O[C@H](n2cnc3c(N)ncnc32)[C@H](O)[C@@H]1O`, in data set [4], the IC50 is 0.42 nM. Regarding `C[C@H](N)C(=O)Nc1ccc2c(c1)c(-c1cccc(S(=O)(=O)N(C)C)c1)cn2C`, the Ratio IC50 in the data set filed under Homo sapiens is more than 500. This compound registered an IC50 in data set [1] of less than 2 nM.

On to `Nc1ncnc2c1ncn2[C@@H]1O[C@H](CSCC[C@H](N)C(=O)O)[C@@H](O)[C@H]1O` [S-ADENOSYLHOMOCYSTEINE], for which the IC50 in data set [5] was less than 5 nM. In the case of `C[C@H](N)C(=O)Nc1ccc2[nH]nc(-c3cccc(S(=O)(=O)N(C)C)c3)c2c1`, the values for the IC50 in [6] and in data set [1] were 60 nM and 500 nM, respectively.

Consider `CNC[C@@H](O)COc1ccc(Cl)c(-c2nc(-c3c(C)noc3C)c(C)c(N3CC4(CCN(C(=O)OC)CC4)C3)n2)c1`, for which, in the data set on ASPC1, the Activity is on record as 52%. In the case of `C[C@H](N)C(=O)Nc1ccc2[nH]cc(-c3cccc(S(C)(=O)=O)c3)c2c1`, the Ratio IC50 in the data set listed under Homo sapiens stood at 197.

On to `COC1CCC(CCNC(=O)[C@H](CC[C@H](CNCc2ccccc2)C[C@H]2O[C@@H](n3cnc4c(N)ncnc43)[C@H](O)[C@@H]2O)NC(=O)CC(C)(C)C2=C(C)C(=O)C(C)=C(C)C2=O)CC1` (stereo partly drawn), for which, in data set [7], half-maximal inhibition (IC50) required 43 nM. `C[C@H](N)C(=O)NCc1cccc(-n2cc(C(F)(F)F)cc2C(=O)NCc2ccccc2)c1` came in with an IC50 in data set [1] of 7230 nM. Further, the logP in data set [2] is 3.8. In the case of `NCCCN(CCCNc1ccccn1)C[C@@H]1O[C@H](n2cnc3c(N)ncnc32)[C@@H](O)[C@H]1O`, in data set [3], 1140 nM corresponded to half-maximal inhibition (IC50).

As for `CNCCN(C)Cc1ccccc1OCc1cccc(Cl)c1Cl`, the IC50 with MV4-11 stood at 4550 nM. The compound `N=C(NCCCN(CCNC(=O)NCc1ccccc1)C[C@H]1O[C@@H](n2cnc3c(N)ncnc32)[C@H](O)[C@@H]1O)Nc1cccc(Br)c1` displayed an IC50 in data set [1] of less than 1 nM. The same measure, in the same setting: the value for `OCCNCCNCc1ccccc1OCc1ccc(Cl)cc1Cl` was 42400 nM. In turn, `NCCN1CCC(Cc2ccccc2)CC1` had an IC50 in [8] of 300 nM.

As for `CNCC(=O)N1CCOc2c(O)cc(-c3cccc(Cl)c3)cc2C1`, the IC50 in the data set on MCF7 was 8260 nM; in [9], 42200 nM.

These data come from ChEMBL document CHEMBL6153026, “Small-Molecule Modulators Targeting Coactivator-Associated Arginine Methyltransferase 1 (CARM1) as Therapeutic Agents for Cancer Treatment: Current Medicinal Chemistry Insights and Emerging Opportunities” (J Med Chem, 2025).
